In patent publication US9986723B2, “Screen and use of therapeutics for pancreatic ductal adenocarcinoma” (The Board of Regents of the University of Texas System, priority 2014, dated 2018):

Legend:
Axl = molecular target: T1, Axl (Homo sapiens, UniProt P30530); experiment: Phosphorylated Axl in Panc-1 cells (western blot, immunofluorescence); assay type: cell-based; settings: overnight, 1% serum, 2 μM
T1 construct: Lysates were probed for total Axl (tAxl) and phosphorylated Axl (pAxl); endogenous in cells; host or cells: Panc-1
T1 sequence (P30530 26-894): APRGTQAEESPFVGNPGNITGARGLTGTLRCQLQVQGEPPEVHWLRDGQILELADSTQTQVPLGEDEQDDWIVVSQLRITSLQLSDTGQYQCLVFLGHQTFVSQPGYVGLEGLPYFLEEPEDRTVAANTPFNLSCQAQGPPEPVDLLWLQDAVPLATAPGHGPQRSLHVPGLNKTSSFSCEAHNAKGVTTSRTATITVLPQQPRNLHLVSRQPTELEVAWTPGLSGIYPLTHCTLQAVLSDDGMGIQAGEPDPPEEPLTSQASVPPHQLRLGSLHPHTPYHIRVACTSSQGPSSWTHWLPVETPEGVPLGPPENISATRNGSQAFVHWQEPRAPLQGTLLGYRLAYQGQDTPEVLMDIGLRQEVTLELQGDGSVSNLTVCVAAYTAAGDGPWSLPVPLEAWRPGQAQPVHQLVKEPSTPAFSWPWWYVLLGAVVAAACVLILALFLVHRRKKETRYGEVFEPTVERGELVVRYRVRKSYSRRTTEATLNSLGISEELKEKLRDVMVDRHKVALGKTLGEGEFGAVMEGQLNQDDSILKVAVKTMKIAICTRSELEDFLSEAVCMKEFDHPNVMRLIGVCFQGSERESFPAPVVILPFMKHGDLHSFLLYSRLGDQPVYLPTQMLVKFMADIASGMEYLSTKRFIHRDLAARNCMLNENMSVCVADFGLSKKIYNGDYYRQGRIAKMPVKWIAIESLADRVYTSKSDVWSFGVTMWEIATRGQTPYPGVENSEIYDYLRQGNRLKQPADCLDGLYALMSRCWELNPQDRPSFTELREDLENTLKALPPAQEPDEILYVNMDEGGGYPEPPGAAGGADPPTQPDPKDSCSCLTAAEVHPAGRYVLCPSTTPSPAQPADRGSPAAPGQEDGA
Protocol: (FIG. 24A) HEK293 cells engineered to stably express recombinant Gas6 were grown in the presence of Vitamin K or Vitamin K+warfarin. Gas6 levels and γ-carboxylation were assayed by immunoblotting conditioned media. Conditioned media from untransfected HEK293 cells was used as a negative control. (FIG. 24B) Panc1 cells were grown overnight in media with 1% serum with no additions (NT), warfarin (2 μM) or BGB324 (2 μM). Lysates were probed for total Axl (tAxl) and phosphorylated Axl (pAxl). (FIG. 24C) Panc1 cells were grown in the presence of control media, Vitamin K, warfarin or warfarin+Vitamin K. The level of phosphorylated Axl (pAXL, red) was determined by immunofluorescence. (FIG. 24D) Panc1 cells were grown overnight in media with 1% serum with no additions (control), warfarin (1 μM), Gas6 (1.3 nM) or Gas6+warfarin. Lysates were probed for phosphorylated Akt (pAkt) and actin. (FIG. 24E) Lysates from Panc1 tumors harvested from mice treated with control or warfarin were probed for expression of tAxl, pAxl, actin, pAKT, tAKT, and cleaved Parp. (FIG. 24F) The effect of warfarin on cell migration was assessed by a ‘scratch’ assay. Monolayers of the indicted cells were wounded with a pipet tip. The cells were incubated in media containing 2% serum+/−warfarin (2 μM) or media containing 2% serum+Gas6 (1.3 nM)+/−warfarin.

primary PDA cells = experiment: Rgs16::GFP PDA primary cell culture, live cell counts after 24 hr drug treatment; assay type: cell-based, mouse; settings: for effect on cell viability and proliferation: 24 hr, gemcitabine 10 μM, BGB324 or warfarin 1 or 10 μM; for recovery of cell growth after drug removal: passages without drug after 24 hr treatment
Protocol: Cell proliferation counts of primary PDA culture after 24 hr treatment with (FIG. 20A) gemcitabine (purple round); (FIG. 20B) BGB324 (green round); (FIG. 20C) warfarin (blue round); or (FIG. 20D) BGB324 with warfarin (green or blue round) at the indicated concentrations. PDA primary cells were plated at equal density (black open circle) at the start. Next day, cells were treated with drugs (D, red font) for 24 hr (red line). Approximate cell number at the start of drug treatment was obtained from another plate with equal density (red open circle). At the end of treatment, cells in each group were counted and subsequent passages started with cells plated at equal density (grey asterisk). Drug treated groups were allowed to grow without drug selection thereafter. Control cells (Ctrl) on separate plates were grown without drug and counted at the end of each passage (black open circle). PDA live cell numbers were obtained via counts using a hemocytometer after 2% Trypan blue staining to distinguish between living and dead cells under an inverted microscope with 10× objective. Statistical significances are based on comparison of drug-treated cell counts to Ctrl. […] Statistical analyses were obtained by comparing counts of drug-treated cells to Ctrl via unpaired and two-tailed Student's t-test. *, p<0.05; **, p<0.01; ***, p<0.001; ****, p<0.0001. Asterisks match the color of the comparison group.
Rgs16::GFP PDA primary cell culture. Primary Rgs16::GFP PDA cells were harvested from 6-week-old KIC mice. Cells were grown in 25 mM Glucose DMEM (HyClone) with 10% FBS (Serum Source International), penicillin and streptomycin (Life Technologies) on rat tail collagen typel (BD Biosciences) coated plates (0.5 μg/cm^2) in a humidified incubator at 37° C. and 5% CO2. Cells reaching confluency were washed twice with PBS (HyClone) and lifted with 0.05% Trypsin-EDTA (HyClone) treatment up to 10 min in the incubator. For drug tests in FIGS. 20A-D, primary PDA cells were incubated with gemcitabine (10 μM dissolved in PBS), warfarin (1 μM or 10 μM dissolved in water), BGB324 (1 μM or 10 μM dissolved in DMSO) or warfarin and BGB324 together for 24 hrs in 37° C. incubator. PDA live cell numbers were obtained via counts using a hemocytometer following 2% trypan blue staining to distinguish dead cells under an inverted microscope.

[1] = test system: PanIN and PDA tumor growth in KIC mice; experiment: Two week in vivo assay in Rgs16::GFP;KIC mice, Rgs16::GFP intensity at P29; parameters: species or system mouse; settings: for effect on GFP levels when combined with GA: drug dissolved in 30% Cyclodextrin
Description: Fluorescent microscopy and GFP quantification. Pancreatic expression of Rgs16::GFP in GFP-PDA mice was quantified using a Zeiss Lumar microscope. Images were captured using a single-channel camera (Hamamatsu) in 1344×1024 resolution with 1 sec exposure under 48× magnification with 1×1 binning, analog gain=10, and analog offset=2 settings. Pancreatic fields representing the tumor burden (3-4 fields for P15 pups and 5 or more for pups from P23 onwards) of the pancreas were imaged covering up to 50% of the organ surface area. All images were saved in gray-scale 16-bit tiff format. Images were quantified using NIH ImageJ software with background subtraction with a radius of 50 pixels. A variable and tight threshold was set to eliminate residual background. Intensities of all particles with size ≥5 pixels were summed to obtain the total light intensity per image.
Drug dosages. GFP-PDA mice were injected intraperitoneally with gemcitabine (Eli Lilly; Indianapolis, Ind., USA) (12.5 mg/kg/day given 3 days/week, dissolved in PBS), Abraxane (Cellgene; Summit, N.J., USA) (5 mg/kg/day given 2 days/week, diluted in 2% saline solution), BGB324 (BerGenBio, Bergen, Norway) (5 mg/kg/day given 5 days/week, dissolved in a mix of DMSO:ethanol:Kolliphor EL:water with 4:4:8:84 v/v ratio), and warfarin (0.2 mg/kg/day given 5 days/week, dissolved in PBS) according to injection schedules specified below. These doses were validated in prior mouse studies (Dineen et al., 2010; Kutluk Cenik et al., 2013; Ostapoff et al., 2013; Aguilera et al., 2014; Ostapoff et al., 2014). […] To verify tumor progression remains constant over the duration of these experiments, assays of untreated mice were interspersed with drug-treated cohorts, and warfarin-treated pups were the final cohort the inventors tested. Gemcitabine, Abraxane and warfarin were purchased from the UT Southwestern clinical pharmacy; BGB324 was a gift from BerGenBio.
Statistical analysis of GFP expression. GFP values were converted to log10 scale prior to statistical analysis. Graphs and their statistical comparisons were done using Graphpad Prism software with unpaired and two-tailed Student's t test. Significance between groups was indicated as ns (not significant); *p<0.05; **p<0.01; ***p<0.001; ****p<0.0001. Error bars in all the graphs are standard error mean (SEM). See FIGS. 7-8 for additional statistical analysis.
The therapeutic screening strategy was to treat KIC pups between P15-P28 (when PanIN and PDA are in rapid expansion) with anticancer drugs, sacrifice mice at P29, and capture Rgs16::GFP intensity with a dissection fluorescence microscope. Images of the five brightest non-overlapping fields of Rgs16::GFP expression were then collected, representing the regions of greatest tumor burden (FIGS. 17A-C).

advanced ovarian cancer = settings: gemcitabine with carboplatin; cited from earlier work
Pan02 = experiment: MTS cell growth assay, gemcitabine +/- warfarin; assay type: cell-based, murine; settings: Mus musculus, Pan02, 120 h, gemcitabine alone, 5 days, read-out: Gemcitabine (nmol/L) median IC50
Protocol: (§1) Cytotoxicity and augmentation of chemotherapy response was measured by MTS assays conducted in 96-well plates; cells were plated on day 0 and drug was added on day 1 in 4-fold dilutions. Maximum concentration of 2,000 nmol/L for gemcitabine was used with or without the addition of a constant concentration of 2 μM warfarin or 1.1 μM 10C9. Relative cell number was determined by adding MTS (Promega; final concentration […]), incubating for 1 to 3 hours at 37° C., and reading absorbance. Drug sensitivity curves and IC50s were calculated using in-house software.

[2] = Body weight of KIC weanling mice under chemotherapy; assay type: in vivo, mouse; settings: P29
Description: FIG. 19. […] Comparison of body weight of female (round) and male (square) non-KIC control (Ctrl, grey), and KIC untreated (Unt, black) or chemotherapy-treated KIC groups are shown. […] Significances are based on comparison of any KIC group to Ctrl via unpaired and two-tailed Student's t-test. ****, p<0.0001.

advanced PDA = settings: patients; cited from earlier work
Capan = experiment: MTS cell growth assay, gemcitabine +/- warfarin; assay type: cell-based; settings: Homo sapiens, 120 h, gemcitabine alone, 5 days, read-out: Gemcitabine (nmol/L) median IC50
Protocol: as §1

MiaPaca = experiment: MTS cell growth assay, gemcitabine +/- warfarin; assay type: cell-based; settings: Homo sapiens, MIA PaCa-2, 120 h, gemcitabine alone, 5 days, read-out: Gemcitabine (nmol/L) median IC50
Protocol: as §1

MiaShAxl = experiment: MTS cell growth assay, gemcitabine +/- warfarin; assay type: cell-based; settings: Homo sapiens, 120 h, gemcitabine alone, 5 days, read-out: Gemcitabine (nmol/L) median IC50
Protocol: as §1

ASPC = experiment: MTS cell growth assay, gemcitabine +/- warfarin; assay type: cell-based, human; settings: Homo sapiens, 120 h; gemcitabine alone; 5 days, MTS; read-out: Gemcitabine (nmol/L) median IC50
Protocol: as §1

Panc1 = experiment: MTS cell growth assay, gemcitabine +/- warfarin; assay type: cell-based, human; settings: Homo sapiens, PANC-1, 120 h; gemcitabine alone; 5 days, MTS; read-out: Gemcitabine (nmol/L) median IC50
Protocol: as §1

[3] = molecular target: vitamin K epoxide reductase (Homo sapiens, UniProt Q9BQB6); settings: cited from earlier work
Sequence of vitamin K epoxide reductase (Q9BQB6 whole entry): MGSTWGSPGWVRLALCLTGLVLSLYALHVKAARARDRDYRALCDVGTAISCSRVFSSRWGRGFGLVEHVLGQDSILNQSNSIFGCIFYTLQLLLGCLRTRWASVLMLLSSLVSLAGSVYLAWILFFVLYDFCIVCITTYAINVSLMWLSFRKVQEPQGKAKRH

Nc1nc(Nc2ccc3c(c2)CC[C@@H](N2CCCC2)CC3)nn1-c1cc2c(nn1)-c1ccccc1CCC2 [BGB324]
phosphorylation of Axl (pAxl) (Axl): inhibited phosphorylation of Axl
effect on cell viability and proliferation (primary PDA cells): cytostatic
recovery of cell growth after drug removal (primary PDA cells): within four passages
effect on GFP levels when combined with GA [1]: did not exert an effect

Cc1c(CN2CCN(C(=O)[C@H](C)O)CC2)sc2c(N3CCOCC3)nc(-c3cnc(N)nc3)nc12 [GDC980]
effect on GFP levels when combined with GA [1]: did not exert an effect

Nc1ccn([C@@H]2O[C@H](CO)[C@@H](O)C2(F)F)c(=O)n1 [Gemcitabine]
neutropenia (most commonly reported adverse effect) (advanced ovarian cancer): 90 % of patients
IC50 (Pan02): 76.5 nmol/L
body weight gain / growth of weanling mice [2]: retards body weight gain
effect on cell viability and proliferation (primary PDA cells): killed cells
recovery of cell growth after drug removal (primary PDA cells): did not recover
survival (advanced PDA): 6.7 months
IC50 (Capan): 6.87 nmol/L
IC50 (MiaPaca): 14.5 nmol/L
IC50 (MiaShAxl): 21 nmol/L
IC50 (ASPC): 16 nmol/L
IC50 (Panc1): 17.1 nmol/L
effect on PanIN lesions and PDA tumor growth (Rgs16::GFP expression) ([1]; KIC mice treated P15-P28, i.p., sacrificed P29): reduction of GFP expression

CC(=O)C[C@@H](c1ccccc1)c1c(O)c2ccccc2oc1=O [S-warfarin]
potency in producing an anticoagulant response relative to the R-isomer [3]: 2-5 times
